Assays:
green foxtail = assay: Test C postemergence herbicide test; format: in vivo, Setaria viridis
Method: (§1) At the same time, plants selected from these crop and weed species and also winter barley (Hordeum vulgare L.), blackgrass (Alopecurus myosuroides Huds.), canarygrass (Phalaris minor Retz.), chickweed (Stellaria media (L.) Vill.), downy bromegrass (Bromus tectorum L.), green foxtail (Setaria viridis (L.) Beauv.), Italian ryegrass (Lolium multiflorum Lam.), wheat (Triticum aestivum L.), wild oat (Avenafatua L.) and windgrass (Apera spica-venti (L.) Beauv.) were treated with postemergence applications of some of the test chemicals formulated in the same manner. Plants ranged in height from 2 to 18 cm (1- to 4-leaf stage) for postemergence treatments. Plant species in the flooded paddy test consisted of rice (Oryza sativa), smallflower umbrella sedge (Cyperus difformis L.), ducksalad (Heteranthera limosa (Sw.) Willd.) and barnyardgrass (Echinochloa crus-galli (L.) Beauv.) grown to the 2-leaf stage for testing. Treated plants and controls were maintained in a greenhouse for 12 to 14 days, after which time all species were compared to controls and visually evaluated. Plant response ratings, summarized in Table C, are based on a scale of 0 to 100 where 0 is no effect and 100 is complete control. A dash (-) response means no test result.

[1] = test system: small flower umbrella sedge; assay: Test B flooded paddy test; format: in vivo, Cyperus difformis; details: 1000 g ai/ha, scale 0 to 100 (0 no effect, 100 complete control)
Outline: (§2)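 After treating 2-leaf paddy plants or 2–18 cm postemergence plants (1 to 4 leaves) with formulated chemical, researchers kept them in a greenhouse for 13–15 days. Effects were judged visually versus controls: 0 indicates none, 100 total control.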

canarygrass = assay: Test C postemergence herbicide test; format: in vivo, Phalaris minor
Method: as §1

wheat [2] = assay: Test B postemergence herbicide test; format: in vivo, Triticum aestivum; design: key to Wheat plant response rating: 0 = no effect, 100 = complete control
Outline: (§3)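 Plants grow to 1- to 4-leaf stage (2–18 cm) for postemergence spraying, or to 2-leaf stage for the paddy test. Formulated compound is applied. Greenhouse holding lasts 13–15 days. Response is scored visually relative to controls, 0 no effect to 100 complete control; a dash means no result.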

windgrass = assay: Test C postemergence herbicide test; format: in vivo, Apera spica-venti; details: postemergence, scale 0 to 100
Method: as §1

corn = assay: Test B pre-/postemergence herbicide test; format: in vivo, Zea mays
Outline: (§4)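 Evaluation is visual, comparing treated with control plants on a scale where 0 means no effect and 100 means full control. Treatments were preemergence, or postemergence on seedlings 2–18 cm tall, and held 13–15 days in the greenhouse.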

large crabgrass = assay: Test B pre-/postemergence herbicide test; format: in vivo, Digitaria sanguinalis
Outline: as §4

ducksalad = assay: Test B flooded paddy test; format: in vivo, Heteranthera limosa; details: 1000 g ai/ha, scale 0 to 100 (0 no effect, 100 complete control)
Outline: as §2

rice = assay: Test B flooded paddy test; format: in vivo, Oryza sativa; details: 1000 g ai/ha, scale 0 to 100 (0 no effect, 100 complete control)
Outline: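 Each value is a visual 0–100 response rating taken against controls 13 to 15 days after treatment in the greenhouse. Plants received formulated chemical postemergence at the 1- to 4-leaf stage or, in flooded paddy, at the 2-leaf stage.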

Italian ryegrass = assay: Test C postemergence herbicide test; format: in vivo, Lolium multiflorum; details: postemergence, scale 0 to 100
Method: as §1

barnyardgrass [3] = assay: Test B pre-/postemergence herbicide test; format: in vivo, Echinochloa crus-galli; details: for Barnyardgrass plant response rating: Postemergence, scale 0 (no effect) to 100 (complete control)
Outline: (§5)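 Flooded paddy rice and barnyardgrass were treated at the 2-leaf stage; upland plantings received compound either on sown seed or on 1- to 4-leaf seedlings. All were kept 13–15 days in a greenhouse and scored visually, 0–100, relative to untreated plants.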

winter barley = assay: Test C postemergence herbicide test; format: in vivo, Hordeum vulgare
Method: as §1

blackgrass [4] = assay: Test B postemergence herbicide test; format: in vivo, Alopecurus myosuroides
Outline: as §2

wild oat [5] = assay: Test C postemergence herbicide test; format: in vivo, Avenafatua; details: postemergence, scale 0 to 100
Method: as §1

blackgrass [6] = assay: Test C postemergence herbicide test; format: in vivo, Alopecurus myosuroides
Method: as §1

wild oat [7] = assay: Test B postemergence herbicide test; format: in vivo, Avena fatua
Outline: as §3

lambsquarters = assay: Test B pre-/postemergence herbicide test; format: in vivo, Chenopodium album
Outline: as §4

Surinam grass = assay: Test B pre-/postemergence herbicide test; format: in vivo, Urochloa decumbens
Outline: as §4

cocklebur = assay: Test B pre-/postemergence herbicide test; format: in vivo, Xanthium strumarium
Outline: as §5

giant foxtail = assay: Test B pre-/postemergence herbicide test; format: in vivo, Setaria faberi
Outline: as §4

barnyardgrass [8] = assay: Test B flooded paddy test; format: in vivo, Echinochloa crus-galli; details: 1000 g ai/ha, scale 0 to 100 (0 no effect, 100 complete control)
Outline: as §2

downy bromegrass = assay: Test C postemergence herbicide test; format: in vivo, Bromus tectorum
Method: as §1

pigweed = assay: Test B pre-/postemergence herbicide test; format: in vivo, Amaranthus retroflexus
Outline: as §4

velvetleaf = assay: Test B pre-/postemergence herbicide test; format: in vivo, Abutilon theophrasti
Outline: as §4

wheat [9] = assay: Test C postemergence herbicide test; format: in vivo, Triticum aestivum; details: postemergence, scale 0 to 100
Method: as §1

morningglory = assay: Test B pre-/postemergence herbicide test; format: in vivo, Ipomoea coccinea
Outline: as §5

[10] = Postemergence, 250 g ai/ha, scale 0 to 100, 0 no effect, 100 complete control
[11] = postemergence, 125 g ai/ha, scale 0 to 100
[12] = postemergence, 62 g ai/ha, scale 0 to 100
[13] = postemergence, 31 g ai/ha, scale 0 to 100
[14] = Postemergence, 500 g ai/ha, scale 0 (no effect) to 100 (complete control)
[15] = 125 g ai/ha, 0 is no effect, 100 is complete control, preemergence

SMILES: C=CCNC(=O)c1ccc(F)c(NC(=O)c2cc(C(C)(C)C)nn2CC)c1 [Compound 430]
- Plant response rating, Foxtail, Green (green foxtail; [10]): 60
- Plant response rating, Foxtail, Green (green foxtail; [11]): 50
- Plant response rating, Foxtail, Green (green foxtail; [12]): 45
- Sedge, Umbrella plant response rating [1]: 80
- Plant response rating, Canarygrass (canarygrass; [10]): 60
- Plant response rating, Canarygrass (canarygrass; [11]): 50
- Plant response rating, Canarygrass (canarygrass; [13]): 30
- Plant response rating, Canarygrass (canarygrass; [12]): 40
- Wheat plant response rating (wheat [2]; 500 g ai/ha, scale 0 to 100, 0 no effect, 100 complete control, preemergence): 100
- Wheat plant response rating (wheat [2]; [14]): 40
- Wheat plant response rating (wheat [2]; [11]): 30
- Plant response rating, Windgrass (windgrass; 125 g ai/ha): 45
- Plant response rating, Windgrass (windgrass; 62 g ai/ha): 35
- Plant response rating (0 to 100 scale), Corn (corn; [15]): 50
- Corn plant response rating (corn; [14]): 40
- Corn plant response rating (corn; [11]): 20
- Plant response rating (0 to 100 scale), Crabgrass, Large (large crabgrass; [15]): 100
- Crabgrass, Large plant response rating (large crabgrass; [14]): 50
- Crabgrass, Large plant response rating (large crabgrass; [11]): 30
- Ducksalad plant response rating (ducksalad): 80
- Rice plant response rating (rice): 60
- Plant response rating, Ryegrass, Italian (Italian ryegrass; 125 g ai/ha): 60
- Plant response rating, Ryegrass, Italian (Italian ryegrass; 62 g ai/ha): 55
- Plant response rating (0 to 100 scale), Barnyardgrass (barnyardgrass [3]; [15]): 90
- Barnyardgrass plant response rating (barnyardgrass [3]; 125 g ai/ha): 30
- Barnyardgrass plant response rating (barnyardgrass [3]; 500 g ai/ha): 50
- Plant response rating, Barley, Winter (winter barley; Postemergence, 125 g ai/ha, scale 0 to 100, 0 no effect, 100 complete control): 35
- Plant response rating, Barley, Winter (winter barley; [10]): 45
- Plant response rating, Barley, Winter (winter barley; [13]): 25
- Plant response rating, Barley, Winter (winter barley; postemergence, 62 g ai/ha, scale 0 to 100 (0 no effect, 100 complete control)): 30
- Blackgrass plant response rating (blackgrass [4]; [14]): 70
- Blackgrass plant response rating (blackgrass [4]; [11]): 40
- Plant response rating, Oat, Wild (wild oat [5]; 125 g ai/ha): 60
- Plant response rating, Oat, Wild (wild oat [5]; 62 g ai/ha): 55
- Plant response rating, Blackgrass (blackgrass [6]; [10]): 65
- Plant response rating, Blackgrass (blackgrass [6]; [11]): 55
- Plant response rating, Blackgrass (blackgrass [6]; [13]): 45
- Plant response rating, Blackgrass (blackgrass [6]; [12]): 50
- Oat, Wild plant response rating (wild oat [7]; [14]): 50
- Oat, Wild plant response rating (wild oat [7]; [11]): 40
- Plant response rating (0 to 100 scale), Lambsquarters (lambsquarters; [15]): 100
- Lambsquarters plant response rating (lambsquarters; [14]): 80
- Lambsquarters plant response rating (lambsquarters; [11]): 60
- Plant response rating (0 to 100 scale), Surinam Grass (Surinam grass; [15]): 80
- Surinam Grass plant response rating (Surinam grass; [14]): 40
- Surinam Grass plant response rating (Surinam grass; [11]): 30
- Plant response rating (0 to 100 scale), Cocklebur (cocklebur; [15]): 10
- Cocklebur plant response rating (cocklebur; [14]): 90
- Cocklebur plant response rating (cocklebur; [11]): 60
- Plant response rating (0 to 100 scale), Foxtail, Giant (giant foxtail; [15]): 90
- Foxtail, Giant plant response rating (giant foxtail; [14]): 40
- Foxtail, Giant plant response rating (giant foxtail; [11]): 30
- Barnyardgrass plant response rating (barnyardgrass [8]): 80
- Plant response rating, Bromegrass, Downy (downy bromegrass; [10]): 55
- Plant response rating, Bromegrass, Downy (downy bromegrass; [11]): 50
- Plant response rating, Bromegrass, Downy (downy bromegrass; [13]): 45
- Plant response rating, Bromegrass, Downy (downy bromegrass; [12]): 45
- Plant response rating (0 to 100 scale), Pigweed (pigweed; [15]): 100
- Pigweed plant response rating (pigweed; [14]): 80
- Pigweed plant response rating (pigweed; [11]): 60
- Plant response rating (0 to 100 scale), Velvetleaf (velvetleaf; [15]): 40
- Velvetleaf plant response rating (velvetleaf; [14]): 80
- Velvetleaf plant response rating (velvetleaf; [11]): 60
- Plant response rating, Wheat (wheat [9]; 125 g ai/ha): 50
- Plant response rating, Wheat (wheat [9]; 62 g ai/ha): 45
- Plant response rating (0 to 100 scale), Morningglory (morningglory; [15]): 20
- Morningglory plant response rating (morningglory; [14]): 70
- Morningglory plant response rating (morningglory; [11]): 60

— patent publication US20060069132A1, “Azolecarboxamide herbicides” (priority 2004, published 2006)
